Laboratory results reported in PMC6432629 (The Prostate, 2016).
Like-named read-outs stand apart in the source and are kept apart here. Each block holds one compound with its values, some of them ahead of it. Numbered stars: 1 amine (or outer) side, 2 acyl side, 3 side chain; on linkers, the order of the positions; unused ones are H or OH. Square brackets hold non-standard residues; d marks the D form. Peptide text beside a SMILES is read from it. * marks the point of attachment. Emetine(N2') = CC[C@H]1CN2CCc3cc(OC)c(OC)cc3[C@@H]2C[C@@H]1C[C@@H]1c2cc(OC)c(OC)cc2CCN1*; PABC = O=C(OCc1ccc(N[*:1])cc1)[*:2]

Assays:
PrEC cells = experiment: Cytotoxicity in normal prostatic epithelial cells in serum free media
FAP [1] = molecular target: T1, FAP (Homo sapiens, UniProt Q12884); experiment: FAP-mediated hydrolysis of prodrugs ex vivo; type: in vitro ADME; conditions: 37°C; for release of emetine on incubation with FAP (in words): FAP in FAP buffer / FAP containing media, LC-MS
T1 sequence (Q12884 27-760 limits assumed): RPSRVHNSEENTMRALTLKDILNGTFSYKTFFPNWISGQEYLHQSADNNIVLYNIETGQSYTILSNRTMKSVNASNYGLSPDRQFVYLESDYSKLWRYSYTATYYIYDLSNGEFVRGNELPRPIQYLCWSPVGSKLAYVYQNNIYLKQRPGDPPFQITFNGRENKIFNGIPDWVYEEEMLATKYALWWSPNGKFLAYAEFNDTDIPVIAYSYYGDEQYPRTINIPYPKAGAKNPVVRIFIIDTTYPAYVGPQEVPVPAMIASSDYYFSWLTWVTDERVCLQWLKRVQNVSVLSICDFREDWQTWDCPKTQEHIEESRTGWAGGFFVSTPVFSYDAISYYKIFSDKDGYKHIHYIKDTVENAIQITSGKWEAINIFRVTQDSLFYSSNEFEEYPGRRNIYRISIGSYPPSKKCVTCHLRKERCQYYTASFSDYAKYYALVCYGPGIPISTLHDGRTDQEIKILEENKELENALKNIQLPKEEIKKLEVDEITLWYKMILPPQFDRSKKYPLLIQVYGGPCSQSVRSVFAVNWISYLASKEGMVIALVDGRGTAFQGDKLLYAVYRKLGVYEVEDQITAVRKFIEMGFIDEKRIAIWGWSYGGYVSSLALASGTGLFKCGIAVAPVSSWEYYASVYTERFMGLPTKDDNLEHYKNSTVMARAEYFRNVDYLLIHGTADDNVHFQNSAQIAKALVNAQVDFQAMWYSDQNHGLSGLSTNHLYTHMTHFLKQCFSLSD

[2] = molecular target: DPPIV (human recombinant CD26) (Homo sapiens, UniProt P27487); experiment: DPPIV-mediated hydrolysis of prodrugs ex vivo; type: in vitro ADME
[3] = Hydrolysis of prodrugs in media with 10% FBS; type: in vitro ADME, bovine; conditions: for % emetine released, 10% FBS: RPMI media with 10% FBS, 500 μM compound, 1% DMSO, 24 hr, HPLC and MS
LNCaP = experiment: MTT cell proliferation; conditions: for cytotoxicity to LNCaP (in words): exposure time not given
[4] = Stability in serum free media; type: in vitro ADME; conditions: 37°C, 72 hr incubation
MCF-7 = experiment: MTT cell proliferation; conditions: for IC50: read-out: IC50 (nM) MCF-7
PC3 = experiment: MTT cell proliferation; conditions: for cytotoxicity to PC3 (in words): exposure time not given; for IC50 fold higher than that of emetine, PC3: in FAP-containing FBS
[5] = system: NCI 60 cancer cell screen; conditions: read-out: GI50 in NCI 60 cancer cell screen; no reference given; cited from earlier work
DPPIV = experiment: FAP buffer; conditions: Human, 37°C, up to 48 hr
FAP [6] = experiment: FAP buffer; conditions: 37°C, up to 24 hr
[7] = system: FAP/DPPIV activity in 10% FBS; experiment: Inhibition of hydrolysis of 10 to emetine in 10% FBS by FAP inhibitor; type: biochemical, bovine; conditions: Ac-Gly-boroPro 200 μM added to 10% FBS containing media
FAP and DPPIV = experiment: mixture of purified FAP and DPPIV; conditions: 37°C, up to 24 hr
[8] = 3-day exposure, media with 10% FBS
[9] = read-out: IC50 (nM) LNCaP, Table II, 3-day exposure, media containing 10% FBS, MTT
[10] = Table II, 3-day exposure, media containing 10% FBS, MTT
[11] = read-out: IC50 (nM) PC3, Table II, 3-day exposure, media containing 10% FBS, MTT
[12] = very high concentration, incubation up to 48 hr at 37°C, LC-MS

Sequence of DPPIV (human recombinant CD26) (P27487 whole entry): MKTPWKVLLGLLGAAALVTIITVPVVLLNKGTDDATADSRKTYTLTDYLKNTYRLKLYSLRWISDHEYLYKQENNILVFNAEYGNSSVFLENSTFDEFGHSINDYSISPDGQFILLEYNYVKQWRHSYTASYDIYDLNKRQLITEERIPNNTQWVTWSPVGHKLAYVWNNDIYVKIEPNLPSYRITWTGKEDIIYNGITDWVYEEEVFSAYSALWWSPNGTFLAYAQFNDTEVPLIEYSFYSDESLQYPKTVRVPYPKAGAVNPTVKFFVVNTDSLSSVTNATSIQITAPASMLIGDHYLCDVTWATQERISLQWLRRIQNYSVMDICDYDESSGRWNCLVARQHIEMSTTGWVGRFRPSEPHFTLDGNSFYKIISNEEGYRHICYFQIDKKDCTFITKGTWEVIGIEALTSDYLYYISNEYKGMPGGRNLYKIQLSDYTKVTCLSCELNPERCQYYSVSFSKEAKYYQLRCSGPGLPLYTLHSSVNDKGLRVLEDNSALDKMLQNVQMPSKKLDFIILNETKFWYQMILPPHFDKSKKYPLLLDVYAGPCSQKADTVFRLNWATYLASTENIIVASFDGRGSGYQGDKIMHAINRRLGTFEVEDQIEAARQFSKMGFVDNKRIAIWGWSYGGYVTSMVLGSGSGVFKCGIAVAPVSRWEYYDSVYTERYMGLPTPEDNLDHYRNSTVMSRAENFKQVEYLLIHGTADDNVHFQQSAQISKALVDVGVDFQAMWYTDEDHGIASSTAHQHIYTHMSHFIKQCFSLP

Compound: CC[C@H]1CN2CCc3cc(OC)c(OC)cc3[C@@H]2C[C@@H]1C[C@@H]1c2cc(OC)c(OC)cc2CCN1C(=O)OCc1ccc(NC(=O)[C@@H]2CCCN2C(=O)[C@H](C)N)cc1 [Compound 10, Ala-Pro-PABC-Emetine]
cytotoxicity to PrEC (in words) (PrEC cells; 100 nM, 1-3 days exposure, serum free media lacking FAP and DPPIV): no observable cytotoxicity
% conversion to emetine by FAP, 24 hr (FAP [1]; purified recombinant FAP 300 nM, 24 hr): 36%
% conversion to emetine by purified DPPIV, 2 hr ([2]; 10 at 500 μM (Fig. 3 legend: 200 μM), DPPIV 30 nM, 37°C, 2 hr): 88%
% conversion to emetine in 10% FBS, 2 hr ([3]; 10% FBS media, 37°C, 2 hr): 10%
% emetine released, 10% FBS ([3]; 37°C): 78%
cytotoxicity / IC50 compared with emetine, LNCaP (in words) (LNCaP; [8]): cytotoxicity comparable to that of emetine
IC50 (LNCaP; [9]): 38.2 ± 1 nM
stability in serum free media [4]: completely stable
cytotoxicity / IC50 compared with emetine, MCF-7 (in words) (MCF-7; [8]): cytotoxicity comparable to that of emetine
IC50 (MCF-7; [10]): 38.4 ± 1.2 nM
cytotoxicity / IC50 compared with emetine, PC3 (in words) (PC3; [8]): cytotoxicity comparable to that of emetine
IC50 (PC3; [11]): 37.2 ± 1.6 nM

Compound: CC[C@H]1CN2CCc3cc(OC)c(OC)cc3[C@@H]2C[C@@H]1C[C@H]1NCCc2cc(OC)c(OC)cc21 [Emetine, emetine]
percentage of viable cells relative to control, day 1 (PrEC cells; 100 nM, PrEC in serum free media lacking FAP and DPPIV, day 1): 80%
percentage of viable cells relative to control, day 2 (PrEC cells; 100 nM, PrEC in serum free media lacking FAP and DPPIV, day 2): 50%
percentage of viable cells relative to control, day 3 (PrEC cells; 100 nM, PrEC in serum free media lacking FAP and DPPIV, day 3): 10%
cytotoxicity to PrEC at 100 nM and 1,000 nM (in words) (PrEC cells; 3-day exposure, keratinocyte serum free media, no FAP or DPPIV): highly cytotoxic
IC50 (PrEC cells; Homo sapiens, PrEC, 72 h, read-out: calculated IC50 in the PrEC cell lines): 35.7 nM
GI50 [5]: 27 nM
IC50 (LNCaP; Homo sapiens, LNCaP, 120 h, read-out: LNCaP [IC50 (nM)]): 31.6 ± 2.4 nM
IC50 (MCF-7; Homo sapiens, MCF7, 72 h): 35.8 ± 1.6 nM
IC50 (PC3; Homo sapiens, PC-3, 120 h, read-out: PC3 [IC50 (nM)]): 29.4 ± 3.2 nM

fragment found (DPPIV): emetine, 2 hr
fragment found (FAP [6]): emetine
Compound: Ala-Pro-PABC-Emetine

Compound: CC[C@H]1CN2CCc3cc(OC)c(OC)cc3[C@@H]2C[C@@H]1C[C@@H]1c2cc(OC)c(OC)cc2CCN1C(=O)OCc1ccc(NC(=O)[C@@H]2CCCN2C(=O)CNC(=O)[C@H](C)NC(=O)[C@@H]2CCCN2C(=O)CNC(=O)[C@H](CO)NC(=O)[C@H](C)NC(C)=O)cc1 [Compound 2] (Ac-ASGPAGP[PABC]-{Emetine(N2')})
release of emetine on incubation with FAP (in words) (FAP [1]; 24 hr): not cleaved by FAP containing media to release emetine
cytotoxicity to LNCaP (in words) (LNCaP; media with 10% FBS): not cytotoxic
cytotoxicity to PC3 (in words) (PC3; media with 10% FBS): not cytotoxic

Compound: CC[C@H]1CN2CCc3cc(OC)c(OC)cc3[C@@H]2C[C@@H]1C[C@@H]1c2cc(OC)c(OC)cc2CCN1C(=O)[C@@H]1CCCN1C(=O)CNC(=O)[C@H](C)NC(=O)[C@@H]1CCCN1C(=O)CNC(=O)[C@H](CO)NC(=O)[C@H](C)NC(C)=O [Compound 1] (Ac-ASGPAGP-{Emetine(N2')})
release of emetine on incubation with FAP (in words) (FAP [1]; 24 hr): did not release detectable amounts of emetine
cytotoxicity to LNCaP (in words) (LNCaP; media with 10% FBS): not cytotoxic
cytotoxicity to PC3 (in words) (PC3; media with 10% FBS): not cytotoxic

Compound: CC(=O)NCC(=O)N1CCC[C@@H]1B(O)O [AcGBP, Ac-Gly-boroPro]
inhibition of release of emetine from 10 in 10% FBS, 2 hr ([7]; 2 hr): completely inhibited
decrease of release of emetine from 10 in 10% FBS, 24 hr ([7]; 24 hr): approximately 45%

Compound: CC[C@H]1CN2CCc3cc(OC)c(OC)cc3[C@@H]2C[C@@H]1C[C@@H]1c2cc(OC)c(OC)cc2CCN1C(=O)[C@@H]1CCCN1C(=O)[C@H](C)N [Compound 9]
conversion to emetine by purified DPPIV (in words) [2, 12]: not converted to emetine
% emetine released, 10% FBS ([3]; 37°C): 0%
conversion to emetine in 10% FBS (in words) [3, 12]: not converted to emetine
cytotoxicity to LNCaP (in words) (LNCaP; media with 10% FBS): inactive compared to emetine
IC50 (LNCaP; [9]): 9520 nM
cytotoxicity to MCF-7 (in words) (MCF-7; media with 10% FBS, exposure time not given): inactive compared to emetine
IC50 (MCF-7; [10]): > 10000 nM
cytotoxicity to PC3 (in words) (PC3; media with 10% FBS): inactive compared to emetine
IC50 (PC3; [11]): > 10000 nM

fragment found (FAP and DPPIV): emetine, 2 hr
fragment found (FAP [6]): emetine
Compound: Ac-Ala-Ser-Gly-Pro-Ala-Gly-Pro-Ala-Pro-PABC-Emetine

Compound: CC[C@H]1CN2CCc3cc(OC)c(OC)cc3[C@@H]2C[C@@H]1C[C@@H]1c2cc(OC)c(OC)cc2CCN1C(=O)[C@H](C)NC(=O)[C@@H]1CCCN1C(=O)CNC(=O)[C@H](C)NC(=O)[C@@H]1CCCN1C(=O)CNC(=O)[C@H](CO)NC(=O)[C@H](C)NC(C)=O [Compound 3] (Ac-ASGPAGPA-{Emetine(N2')})
% cleavage to Ala-Gly-Pro-Ala-Emetine (FAP [1]; 24 hr incubation with FAP): 100%
release of emetine on incubation with FAP (in words) (FAP [1]; 24 hr): no further conversion to free emetine
IC50 fold higher than that of emetine, PC3 (PC3): more than 150 fold

Compound: CC[C@H]1CN2CCc3cc(OC)c(OC)cc3[C@@H]2C[C@@H]1C[C@@H]1c2cc(OC)c(OC)cc2CCN1C(=O)OCc1ccc(NC(=O)[C@H](C)NC(=O)[C@@H]2CCCN2C(=O)CNC(=O)[C@H](C)NC(=O)[C@@H]2CCCN2C(=O)CNC(=O)[C@H](CO)NC(=O)[C@H](C)NC(C)=O)cc1 [Compound 4] (Ac-ASGPAGPA[PABC]-{Emetine(N2')})
% Ala-Gly-Pro-Ala-PABC-Emetine (minor cleavage product) (FAP [1]; 24 hr incubation with FAP): 15%
% Ala-PABC-Emetine (major cleavage product) (FAP [1]; 24 hr incubation with FAP): 85%
release of emetine on incubation with FAP (in words) (FAP [1]; 24 hr): no further conversion to free emetine
IC50 fold higher than that of emetine, PC3 (PC3): more than 150 fold
